Assay results published in patent US20030138812A1, “Assessment of ecosystem health by evaluating multiple biomarkers in a nonhuman organism” (priority 2000, published 2003).
Read-outs that look alike come from different tables or passages of the source. Marks after values point to notes of the source that are not given here.

Tests used:
[1] = tested on: Ilyanassa obsoleta (mud snails)
Experimental: To determine that the antibodies bound to their specific targets, preliminary experiments were conducted to ensure the validity of the antibody assays. Snails were exposed either to high temperature, cadmium, ethanol, or acetone, homogenized in an SDS/50 mM dithiothreitol buffered solution, subjected to SDS-PAGE, immunoblotted to PVDF membrane, and assayed with at least 3 different antibodies per cellular parameter. […] Purified protein of each cellular parameter was run beside control and treated samples.

[2] = tested on: Palaeomonetes pugio (grass shrimp); assay type: in vivo
Text: Purified protein of each cellular parameter was run along side control and treated samples.

[3] = tested on: Palaeomonetes pugio (grass shrimp); experiment: Cadmium stress: biomarker responses in grass shrimp; assay type: in vivo; settings: for Cyt. P450 (cytochrome P450 2E1) / SOD (Mn SOD): 8-hour exposure
Experimental: (§1) During the seven-day acclimation, grass shrimp were subject to a […] photosynthetic-active-radiation 14 hour photoperiod at 22° C. […] Dissolved oxygen, ammonia content, and temperature were continually monitored throughout the seven-day chamber acclimation.
Cadmium stress—Grass shrimp were subjected to an 8-hour exposure to 0 M, […], and […] cadmium chloride. The solvent carrier was water.
(§2) Samples were vortexed for 30 seconds and then centrifuged at 10,000× g for 5 minutes. The supernatant was placed in a new tube for LPO and GSH analyses. Protein concentration of samples were assayed by the method of Ghosh et al. (1988), supra.
(§3) Samples were then boiled for 3 minutes, allowed to sit at 25° C. for 5 minutes, and then centrifuged at 10,000× g for 5 minutes. […] The sample was then subjected to another protein concentration assay.
(§4) Samples were analyzed for LPO and total GSH content following the manufacturer's instruction. Samples for each assay were analyzed in triplicate, and sample means provided independent unit of statistical analysis.
(§5) All samples were analyzed in triplicate. ELISPOT technique on nitrocellulose membrane was employed using a dot blot apparatus.

[4] = tested on: Ilyanassa obsoleta (mud snails); assay type: in vivo
Experimental: Tanks were aerated with air stones. Snails were fed commercially available algal pellets.
The solvent carrier was water.
No evidence of either was found.
(§6) Samples for each assay were analyzed in triplicate.
(§7) Sample was then subjected to another protein concentration assay.
(§8) All samples were analyzed in triplicate.

[5] = tested on: Ilyanassa obsoleta (mud snails); experiment: Endosulfan exposure: biomarker responses in mud snails; settings: 8-hour exposure
[6] = tested on: Ilyanassa obsoleta (mud snails); experiment: Atrazine exposure: biomarker responses in mud snails; assay type: in vivo; settings: 8-hour exposure
Experimental: Tanks were aerated with air stones. Snails were fed commercially available algal pellets. […]
as §6, §7, §8

[7] = tested on: Palaeomonetes pugio (grass shrimp); experiment: Atrazine stress: biomarker responses in grass shrimp; assay type: in vivo; settings: for B-crystallin / Metallo. (metallothionein) / SOD (Mn SOD) / ubiquitin: 8-hour exposure
Experimental: as §1
Atrazine stress—Grass shrimp were exposed to […], or 1 mg/L of an acetone stock of technical grade atrazine (99%).
as §2, §3, §4, §5

[8] = high: 50 M cadmium chloride, 8-hour exposure
[9] = low: 5 M cadmium chloride, 8-hour exposure
[10] = control to high atrazine treatments, grass shrimp

## CCO [ethanol]
[1]; in vivo
  induction of Hsp70 homologues: inducible by all treatments except ethanol and acetone
  induction of protein detected by Cytochrome P450 2E1 antibody (ca. 50 kDa): ethanol- and acetone-inducible
[2]; in vivo
  induction of Hsp70 homologues: inducible by all treatments except ethanol and acetone
  induction of protein detected by Mn SOD antibody (about 23 kDa): not by exposure to ethanol or acetone
  induction of proteins detected by Cytochrome P450 2E1 antibody (ca. 53 kDa): ethanol- and acetone-inducible

## [Cl][Cd][Cl] [Cadmium Chloride, cadmium chloride]
[1]; immunoblot
  induction of protein detected by Cytochrome P450 2E1 antibody (ca. 50 kDa): did not elicit significant accumulation
  induction of protein detected by Mn SOD antibody (about 26 kDa): inducible by both heat stress and cadmium
[3]; high CdCl2 concentrations, grass shrimp
  Metallothionine increase in mean levels compared to the control: more than a six-fold increase
[3]; high: 50 uM cadmium chloride
  Cyt. P450 (cytochrome P450 2E1): 12.9 ± 1.26 relative protein concentrations
  SOD (Mn SOD): 4.0 ± 0.16 g SOD/ mg total protein
[3]; low: 1 uM cadmium chloride
  Cyt. P450 (cytochrome P450 2E1): 14.5 ± 1.19 relative protein concentrations
  SOD (Mn SOD): 3.3 ± 0.12 g SOD/ mg total protein
[3]; medium: 5 uM cadmium chloride
  Cyt. P450 (cytochrome P450 2E1): 13.4 ± 1.48 relative protein concentrations
  SOD (Mn SOD): 4.3 ± 0.80 g SOD/ mg total protein
[4]; high CdCl2 concentrations, mud snails
  Metallothionine increase in mean levels compared to the control: more than a six-fold increase
[4]; [8]
  Cyt. P450 (cytochrome P450 2E1 homologue): 27.4 ± 3.14 relative protein concentrations
  LPO: 1.16 ± 0.093 mM LPO/mg total protein
[4]; [9]
  Cyt. P450 (cytochrome P450 2E1 homologue): 28.6 ± 3.11 relative protein concentrations
  Hsp60: 0.419^b ± pg Hsp or B-crystallin/ g total protein
  LPO: 1.1 mM LPO/mg total protein
[2]; immunoblot
  induction of protein detected by Mn SOD antibody (about 23 kDa): inducible by both heat stress and cadmium
  induction of proteins detected by Cytochrome P450 2E1 antibody (ca. 53 kDa): did not elicit significant accumulation
  induction of proteins detected by metallothionein antibody (ca. 7 k to 12 kDa): cadmium-inducible

## O=S1OCC2C(CO1)C1(Cl)C(Cl)=C(Cl)C2(Cl)C1(Cl)Cl (stereo not shown) [Endosulfan, endosulfan]
[5]; high: 1 g/L endosulfan
  B-crystallin: 13 ± 2.7 pg Hsp or B-crystallin/ g total protein
  Hsp26: 23 ± 3.3 pg Hsp or B-crystallin/ g total protein
  Metallo. (metallothionein): 14 ± 3.11 ng metallothionein/mg total protein
[5]; low: 50 ng/L endosulfan
  B-crystallin: 12 ± 3.1 pg Hsp or B-crystallin/ g total protein
  Hsp26: 20 ± 12.673 pg Hsp or B-crystallin/ g total protein
  Metallo. (metallothionein): 19.4 ± 1.99 ng metallothionein/mg total protein
[5]; medium: 500 ng/L endosulfan
  B-crystallin: 11 ± 3.9 pg Hsp or B-crystallin/ g total protein
  Hsp26: 19 ± 5.9 pg Hsp or B-crystallin/ g total protein
  Metallo. (metallothionein): 22.2 ± 3.15 ng metallothionein/mg total protein

## CCNc1nc(Cl)nc(NC(C)C)n1 [Atrazine, atrazine]
[6]; high: 1 mg/L atrazine
  B-crystallin: 25 ± 2.1 pg Hsp or B-crystallin/ g total protein
  Cyt. P450 (cytochrome P450 2E1 homologue): 17.8 ± 3.07 relative protein concentrations
  GSH: 83 ± 3.1 mM GSH/ g total protein
  Hsp22: 6 ± 1.9 pg Hsp or B-crystallin/ g total protein
  Hsp60: 0.158 ± 0.0086 pg Hsp or B-crystallin/ g total protein
  Hsp70: 121.8 ± 6.08 pg Hsp or B-crystallin/ g total protein
  LPO: 1.32 ± 0.037 mM LPO/mg total protein
  Metallo (metallothionein): 8.6 ± 1.72 ng metallothionein/mg total protein
  Mn SOD: 7.8 ± 1.66 relative protein concentrations
  ubiquitin: 41 ± 3.7 ng ubiquitin/ g total protein
[6]; low: 1 g/L atrazine
  B-crystallin: 29 ± 1.3 pg Hsp or B-crystallin/ g total protein
  Cyt. P450 (cytochrome P450 2E1 homologue): 18.0 ± 2.90 relative protein concentrations
  GSH: 85 ± 3.6 mM GSH/ g total protein
  Hsp22: 6 ± 2.0 pg Hsp or B-crystallin/ g total protein
  Hsp70: 123.4 ± 7.05 pg Hsp or B-crystallin/ g total protein
  LPO: 1.16 ± 0.040 mM LPO/mg total protein
  Metallo (metallothionein): 18.2 ± 2.06 ng metallothionein/mg total protein
  Mn SOD: 9.0 ± 1.76 relative protein concentrations
  ubiquitin: 42 ± 3.9 ng ubiquitin/ g total protein
[7]; [10]
  Levels of LPO decreased: 38%
  levels of Hsp60 increased: nearly five-fold
[7]; high: 1 mg/L atrazine
  B-crystallin: 190 ± 27 ng Hsp or B-crystallin/ g total protein
  Metallo. (metallothionein): 1.7 ± 0.35 ng metallothionein/mg total protein
  SOD (Mn SOD): 7.9 ± 1.86 g SOD/ mg total protein
[7]; low: 1 g/L atrazine
  B-crystallin: 290 ± 27 ng Hsp or B-crystallin/ g total protein
  Metallo. (metallothionein): 1.4 ± 0.17 ng metallothionein/mg total protein
  SOD (Mn SOD): 4.3 ± 0.23 g SOD/ mg total protein
  ubiquitin: 1.44 ± 0.068 nanog ubiquitin/ g total protein
[7]; medium: 500 g/L atrazine
  B-crystallin: 250 ± 45 ng Hsp or B-crystallin/ g total protein
  Metallo. (metallothionein): 1.8 ± 0.45 ng metallothionein/mg total protein
  SOD (Mn SOD): 4.6 ± 1.61 g SOD/ mg total protein
  ubiquitin: 1.38 ± 0.066 nanog ubiquitin/ g total protein

## CC(C)=O [acetone]
[1]; immunoblot
  induction of Hsp70 homologues: inducible by all treatments except ethanol and acetone
  induction of protein detected by Mn SOD antibody (about 26 kDa): not by exposure to acetone
[1]; in vivo
  induction of protein detected by Cytochrome P450 2E1 antibody (ca. 50 kDa): ethanol- and acetone-inducible
[2]; immunoblot
  induction of Hsp70 homologues: inducible by all treatments except ethanol and acetone
  induction of protein detected by Mn SOD antibody (about 23 kDa): not by exposure to ethanol or acetone
[2]; in vivo
  induction of proteins detected by Cytochrome P450 2E1 antibody (ca. 53 kDa): ethanol- and acetone-inducible
